Assay results taken from patent US7183314B1, “Compound for treatment of anxiety and methods of preparation and use thereof” (Naturon Limited, priority 2000, dated 2007).

Key:
Male ICR mice [1] = test: Locomotor activity test; assay type: in vivo; conditions: oral; for Locomotor Activity Score: 5 minute period
Method: (§1) Male ICR mice weighing 18–23 g were used. They were housed in groups of four or five with free access to food and water and maintained on a 11 hour light: 13 hour dark cycle. All of the experimental groups, except acute lethal activity test (10 mice of either sex) have 16 animals per group.
(§2) For the chronic test, mice received 5 days pretreatment before the test. Flumazenil (Ro15-1788) was administrated intraperitoneally (IP) 15 minutes before testing in an injection volume of 12.5 ml/kg.
A ZIL-2 apparatus (Beijing Institute of Materia Medica) with dimensions 60×60×12 cm was used. It consists of four circular plastic boxes with diameter 25 cm and each has 6 equally distributed infrared photocells. The locomotor activity was counted automatically during a 5 minute period of test. An increase in the number of transitions reflects an increased locomotor activity.

Male ICR mice [2] = test: Holeboard test; assay type: in vivo; conditions: oral; for Head-dip Number / Head-dip Time: 5 minutes
Method: as §1, §2
The holeboard was a wooden box, 60×60×30 cm, with four holes of 3 cm diameter equally spaced in the floor. Mice were placed in the center of the holeboard and the number of head-dips, the time spent head-dipping were counted during 5 minutes (File, S. E., and Pellow, S., Br J Pharmacol 86: 729–735, 1985). Mice were allocated to different test groups randomly, and tested in an randomized order of drug treatment between 8 A.M. and 12 P.M. in a room lit by dim light. After each trial, the floor of the apparatus was wiped and dried thoroughly with tissue to remove traces of the previous path. An increase in the number and time spent head-dipping in this test are indicative of a greater exploratory activity. Conversely, a decrease in any of these parameters compared to controls is symptomatic of sedated behavior (Nolan, N. A., and Parkes, M. W., Psychopharmacol 29: 277–288, 1973; File, S. E., and Wardill, A. G., Psychopharmacol 44: 53–59, 1975; File, S. E., and Pellow, S., Psychopharmacol 88:1–11, 1986).

Male ICR mice [3] = test: Elevated plus-maze; assay type: in vivo; conditions: for Total (total number of arm entries): 5 minute test
Method: as §1, §2
The elevated plus-maze was made of wood and consisted of two open arms (25×5 cm) and two opposite arms enclosed by 20 cm high walls. The arms extended from a central platform (5×5 cm). The plus-maze was elevated to a height of 40 cm. The maze was put inside a box 30×30×50 cm. […] The number of entries into and the time spent on the open and closed arms were counted. The total number of arm entries provided a measure of general activity, and anxiety reduces the number of such entries. At the end of the test, the number of entries into open arms was expressed as a percentage of the total number of arm entries. The time spent on the open arms was also expressed as a percentage of time spent on both the open and closed arms. Testing took place between 8 A.M. and 12 P.M. Mice were randomly allocated to different test groups, and tested in a randomized order of drug treatment in a room lit by dim light. After each trial, the floor of the apparatus was wiped and dried thoroughly with tissue to remove traces of the previous path.

Male ICR mice [4] = test: Horizontal wire test; assay type: in vivo; conditions: up to 30 mg/kg, 1 hour after oral administration, FIG. 5
Method: as §1, §2
Mice were lifted by the tail and allowed to grasp a horizontally strung wire (1 mm diameter, 15 cm long and placed 20 cm above the table) with their forepaws and released (Bonetti, E. P., et al., Psychopharmacol 78: 8–18, 1982). […] After two trials performed at 5 minute intervals, the test took place. A myorelaxant drug impairs the capacity of the mice to grasp the wire. Such muscle relaxation is commonly associated with sedation.

[5] = Acute lethal activity test; conditions: both sexes, ICR, mouse, in vivo; in mice
Method: as §1

[6] = test system: BZD-S of the GABAA-receptor; conditions: as variously reported; cited from earlier work
[7] = Acute, 1 hour before test, 1 mg/kg
[8] = Chronic (5 days pretreatment), 1 mg/kg
[9] = Acute, 1 hour before test, 3.75 mg/kg
[10] = Acute, 1 hour before test, 7.5 mg/kg
[11] = Acute, 1 hour before test, 15 mg/kg
[12] = Acute, 1 hour before test, 30 mg/kg
[13] = Chronic (5 days pretreatment), 3.75 mg/kg
[14] = Chronic (5 days pretreatment), 7.5 mg/kg
[15] = Chronic (5 days pretreatment), 15 mg/kg
[16] = Chronic (5 days pretreatment), 30 mg/kg

SMILES: CN1C(=O)CN=C(c2ccccc2)c2cc(Cl)ccc21 [diazepam, reference compound]
- Locomotor Activity Score (Male ICR mice [1]; [7]): 225.29 ± 15.80
- Locomotor Activity Score (Male ICR mice [1]; [8]): 195.25 ± 13.03
- Head-dip Number (Male ICR mice [2]; [7]): 28.88 ± 2.16
- Head-dip Time (Male ICR mice [2]; [7]): 37.00 ± 0.79
- Head-dip Number (Male ICR mice [2]; [8]): 31.94 ± 3.57
- Head-dip Time (Male ICR mice [2]; [8]): 36.50 ± 3.59
- Total (total number of arm entries) (Male ICR mice [3]; Acute, oral, 1 hour before test, 1 mg/kg): 45.13 ± 2.31
- Total (total number of arm entries) (Male ICR mice [3]; Chronic (5 days pretreatment), oral, 1 mg/kg): 29.38 ± 2.67

SMILES: COc1c(O)cc(O)c2c(=O)cc(-c3ccccc3)oc12 [wogonin]
- Locomotor Activity Score (Male ICR mice [1]; [9]): 189.44 ± 6.54
- Locomotor Activity Score (Male ICR mice [1]; [10]): 205.63 ± 13.11
- Locomotor Activity Score (Male ICR mice [1]; [11]): 207.38 ± 10.12
- Locomotor Activity Score (Male ICR mice [1]; [12]): 193.50 ± 6.39
- Locomotor Activity Score (Male ICR mice [1]; [13]): 149.75 ± 6.55
- Locomotor Activity Score (Male ICR mice [1]; [14]): 170.56 ± 12.00
- Locomotor Activity Score (Male ICR mice [1]; [15]): 172.75 ± 6.25
- Locomotor Activity Score (Male ICR mice [1]; [16]): 184.56 ± 7.88
- Sedative effects (change in motor activity) (Male ICR mice [1]; up to 30 mg/kg body weight, mice): did not induce any sedative effects
- Head-dip Number (Male ICR mice [2]; [9]): 23.88 ± 1.08
- Head-dip Time (Male ICR mice [2]; [9]): 27.00 ± 1.10
- Head-dip Number (Male ICR mice [2]; [10]): 31.06 ± 1.88
- Head-dip Time (Male ICR mice [2]; [10]): 36.38 ± 1.93
- Head-dip Number (Male ICR mice [2]; [11]): 37.00 ± 1.94
- Head-dip Time (Male ICR mice [2]; [11]): 42.25 ± 2.54
- Head-dip Number (Male ICR mice [2]; [12]): 42.75 ± 3.58
- Head-dip Time (Male ICR mice [2]; [12]): 48.19 ± 3.92
- Head-dip Number (Male ICR mice [2]; [13]): 23.88 ± 1.86
- Head-dip Time (Male ICR mice [2]; [13]): 26.88 ± 1.95
- Head-dip Number (Male ICR mice [2]; [14]): 32.31 ± 1.80
- Head-dip Time (Male ICR mice [2]; [14]): 38.00 ± 0.79
- Head-dip Number (Male ICR mice [2]; [15]): 32.81 ± 2.27
- Head-dip Time (Male ICR mice [2]; [15]): 37.38 ± 2.32
- Head-dip Number (Male ICR mice [2]; [16]): 30.13 ± 1.59
- Head-dip Time (Male ICR mice [2]; [16]): 35.88 ± 1.81
- Sedative effect (holeboard) (Male ICR mice [2]; up to 30 mg/kg, mice): did not induce a significant sedative effect
- Anxiolytic effects: open arm entries (acute), % time spent in open arms (acute), % open arm entries (chronic) (Male ICR mice [3]; 7.5, 15 or 30 mg/kg, oral, mice, FIG. 3): significant anxiolytic effects
- Total (total number of arm entries) (Male ICR mice [3]; Acute, oral, 1 hour before test, 3.75 mg/kg): 34.56 ± 0.97
- Total (total number of arm entries) (Male ICR mice [3]; Acute, oral, 1 hour before test, 7.5 mg/kg): 45.56 ± 1.71
- Total (total number of arm entries) (Male ICR mice [3]; Acute, oral, 1 hour before test, 15 mg/kg): 43.50 ± 1.90
- Total (total number of arm entries) (Male ICR mice [3]; Acute, oral, 1 hour before test, 30 mg/kg): 47.00 ± 1.93
- Total (total number of arm entries) (Male ICR mice [3]; Chronic (5 days pretreatment), oral, 3.75 mg/kg): 27.56 ± 1.90
- Total (total number of arm entries) (Male ICR mice [3]; Chronic (5 days pretreatment), oral, 7.5 mg/kg): 31.75 ± 2.07
- Total (total number of arm entries) (Male ICR mice [3]; Chronic (5 days pretreatment), oral, 15 mg/kg): 31.56 ± 2.13
- Total (total number of arm entries) (Male ICR mice [3]; Chronic (5 days pretreatment), oral, 30 mg/kg): 31.31 ± 1.77
- Anxiolytic effect of wogonin after treatment with Flumazenil Ro15-1788 (Male ICR mice [3]; Flumazenil Ro15-1788 2.5 mg/kg IP 15 minutes before testing, mice, FIG. 4): completely abolished
- Myorelaxant effects (Male ICR mice [4]): devoid of myorelaxant effects
- LD50 [5]: ~4000 mg/kg
- Binding affinity to the BZD-S of the GABAA-receptor [6]: weak or moderate
